The record followed here is patent US7999000B2, “N-(2-amino-phenyl)-acrylamides” (Hoffmann-La Roche Inc., priority 2008, dated 2011).

As a reminder, the GI50 is the concentration giving 50% growth inhibition.

The test system of one assay is HT-29 colon cancer cells. Briefly: Antiproliferative activity, growth inhibition assay (MTS/WST). Particulars: Homo sapiens, 72 hour, read-out: GI50 (micromolar) HT-29. The class given is cell-based. The protocol:
Antiproliferative Activity Against Cancer Cell Lines By Novel Compounds
The novel compounds of the present invention were tested for their ability to inhibit growth of various cancer cell lines using in vitro growth inhibition assays described below.
Cells were seeded in 96-well culture plates (200 microliters/well at different seeding concentrations depending on cell type) and incubated overnight at 37 degrees Celsius in 5% CO2. After adding compound dilutions to the cells (DMSO concentration kept below 0.5%), the cells were incubated at 37 degrees Celsius in 5% CO2 for 72 hours. The effects on proliferation were determined by addition of MTS reagent (Promega) according to the manufacturer's instruction, followed by incubation for 2 hours at 37 degrees Celsius in 5% CO2, and finally recording the absorbance at 490 nm using an ELISA plate reader.
Similar to MTS assay except that the developer is the CCK-8 reagent (Dojindo) and the plate reader is set to 450 nm absorbance.
GI50 values against HT-29 colon cancer cells for specific representative compounds can be found in Table 3.

Assay [1] deals with p21 promoter-luciferase construct in HeLa cells. Nature of the assay: p21 reporter gene induction. The class given is cell-based. Particulars: relative induction potency compared with SNDX-275 at 3 micromolar. The protocol: p21 Reporter Gene Induction By Novel Compounds
The novel compounds of the present invention were tested for their ability to induce p21 gene expression using a reporter gene assay involving HeLa cells transfected with a p21 promoter-luciferase construct. The p21 promoter contained the Sp1/Sp3 binding site for HDAC but not the upstream p53 binding site. Briefly, the day before transfection, HeLa cells were seeded at 11,000 cells/well in a 96-well culture plate and incubated at 37 degrees Celsius in 5% CO2 overnight. For transfection, the medium was removed and replaced with 100 microliters/well transfection media previously prepared as follows: 5 microliters serum-free DMEM, 0.15 microliters Fugene 6 reagent, 40 ng p21-luc, 10 ng GFP were mixed gently and incubated at room temperature for 30 minutes; then 98 microliters DMEM (with 10% FBS, 1% penicillin and streptomycin) was added to the DNA:Fugene 6 reagent complex and mixed gently. After incubating the cells for 24 hours at 37 degrees Celsius in 5% CO2, fresh media and test compounds were added to the wells and the cells further incubated for 15 hours at 37 degrees Celsius in 5% CO2. Cells were lysed by adding 80 microliters/well of a cell culture lysis reagent (Promega). 50 microliters of each lysate was taken for GFP detection using an excitation wavelength of 486 nm and detection at 527 nm. 100 microliters Luciferase assay reagent (Promega) was then added to every 20 microliters cell lysate for luminometer detection. […] Induction activity for specific representative compounds can be found in Table 3.

For assay [2], the system named is klf2 promoter-luciferase construct in A204 cells. Nature of the assay: klf2 reporter gene induction (p21 versus klf2 selectivity). Type of assay: cell-based. Particulars: for p21/klf2 (RP3): relative selectivity at 3 micromolar compared with SNDX-275 (p21/klf2 ratio defined as 1.0); for p21/klf2 (RP10): relative selectivity at 10 micromolar compared with SNDX-275 (p21/klf2 ratio defined as 1.0). The protocol:
klf2 Reporter Gene Induction By Novel Compounds
The novel compounds of the present invention were tested for their ability to induce klf2 gene expression using a reporter gene assay involving A204 cells transfected with a klf2 promoter-luciferase construct. The klf2 promoter contained the MEF2 binding site for HDAC3/class IIa HDAC complex. Briefly, the day before transfection, A204 cells were seeded at 11,000 cells/well in a 96-well culture plate and incubated at 37 degrees Celsius in 5% CO2 overnight. For transfection, the medium was removed and replaced with 100 microliters/well transfection media previously prepared as follows: 5 microliters serum-free DMEM, 0.15 microliters Fugene 6 reagent, 40 ng klf2-luc, 10 ng GFP were mixed gently and incubated at room temperature for 30 minutes; then 98 microliters DMEM (with 10% FBS, 1% penicillin and streptomycin) was added to the DNA:Fugene 6 reagent complex and mixed gently. After incubating the cells for 24 hours at 37 degrees Celsius in 5% CO2, fresh media and test compounds were added to the wells and the cells further incubated for 15 hours at 37 degrees Celsius in 5% CO2. Finally, 10 ng/ml TNF-a was added and the cells further incubated for 4 hours. Cells were lysed by adding 80 microliters/well of a cell culture lysis reagent (Promega). 50 microliters of each lysate was taken for GFP detection using an excitation wavelength of 486 nm and detection at 527 nm. 100 microliters Luciferase assay reagent (Promega) was then added to every 20 microliters cell lysate for luminometer detection.

Assay [3] relates to histone deacetylase (HeLa nuclear extract). Nature of the assay: HeLa extract HDAC fluorometric assay. The class given is biochemical. Conditions: relative inhibitory potency compared with SNDX-275 at 30 micromolar. The procedure:
HDAC Inhibition by Novel Compounds: HeLa Extract HDAC Fluorometric Assay
Novel compounds were tested for their ability to inhibit histone deacetylase using an in vitro deacetylation assay. The enzyme source for this assay was HeLa nuclear extract. The substrate consisted of a commercial product containing an acetylated lysine side chain (both HeLa extract and substrate are available commercially from BIOMOL Research Laboratories, Inc., Plymouth Meeting, Pa.). After deacetylation of the substrate by incubation with HeLa nuclear extract, subsequent exposure to a developing reagent produces a fluorophore that is directly proportional to the level of deacetylation. Using the substrate concentration at the Km for the HeLa nuclear extract, the deacetylation assay was performed in the presence of novel compounds at 30 micromolar and the percent enzyme inhibition relative to a known reference HDAC inhibitor (SNDX-275) was determined. […] Inhibitory activity for specific representative compounds can be found in Table 3.

In the case of `CN(C)[C@@H]1CCN(C(C(=O)Nc2ccc(C(F)(F)F)cc2)c2ccc(/C=C/C(=O)Nc3ccccc3N)cc2)C1` (stereo partly drawn) [Example 7-6, (E)-N-(2-Amino-phenyl)-3-{4-[((R)-3-dimethylamino-pyrrolidin-1-yl)-(4-trifluoromethyl-phenylcarbamoyl)-methyl]-phenyl}-acrylamide], the GI50 with HT-29 colon cancer cells was determined as 3 µM. The “p21 (RP3)” value in assay [1] came to 216%. Further, in assay [2], the “p21/klf2 (RP3)” value was 2.3 and the “p21/klf2 (RP10)” value turned out to be 2.9. Moreover, the “HD (RP30)” value in assay [3] turned out to be 175%.
The corresponding values for `CCN(CC)C1CCN(C(C(=O)Nc2ccc(C(F)(F)F)cc2)c2ccc(/C=C/C(=O)Nc3ccccc3N)cc2)C1` (stereo not shown) [Example 7-7, (E)-N-(2-Amino-phenyl)-3-{4-[(3-diethylamino-pyrrolidin-1-yl)-(4-trifluoromethyl-phenylcarbamoyl)-methyl]-phenyl}-acrylamide] are 2.3 µM, 230%, 2.1, 2.0 and 183%.
The corresponding values for `CCN(CC)C1CCN(C(C(=O)Nc2ccc(C#N)cc2)c2ccc(/C=C/C(=O)Nc3ccccc3N)cc2)C1` (stereo not shown) [Example 7-16, (E)-N-(2-Amino-phenyl)-3-{4-[(4-cyano-phenylcarbamoyl)-(3-diethylamino-pyrrolidin-1-yl)-methyl]-phenyl}-acrylamide] are 0.2 µM, 157%, 0.7, 0.9 and 159%.
Taken in the same sequence, the figures for `CCN(CC)C1CCN(C(C(=O)Nc2ccc(F)cc2)c2ccc(/C=C/C(=O)Nc3ccccc3N)cc2)C1` (stereo not shown) [Example 7-17, (E)-N-(2-Amino-phenyl)-3-{4-[(3-diethylamino-pyrrolidin-1-yl)-(4-fluoro-phenylcarbamoyl)-methyl]-phenyl}-acrylamide] were 0.7 µM, 163%, 0.7, 1.0 and 164%.
As for `CCN(CCO)C1CCN(C(C(=O)Nc2ccc(Br)cc2)c2ccc(/C=C/C(=O)Nc3ccccc3N)cc2)C1` (stereo not shown) [Example 7-29, (E)-N-(2-Amino-phenyl)-3-[4-((4-bromo-phenylcarbamoyl)-{3-[ethyl-(2-hydroxy-ethyl)-amino]-pyrrolidin-1-yl}-methyl)-phenyl]-acrylamide], the “p21 (RP3)” value in assay [1] is reported as 293%. Moreover, in assay [2], the “p21/klf2 (RP3)” value is reported as 1.2 and the “p21/klf2 (RP10)” value stood at 1.4. Moreover, the “HD (RP30)” value in assay [3] was found to be 144%.
As for `Nc1ccccc1NC(=O)/C=C/c1ccc(C(C(=O)Nc2ccc(Br)cc2)N2CCC(N3CCCCC3)C2)cc1` (stereo not shown) [Example 7-30, (E)-N-(2-Amino-phenyl)-3-{4-[(4-bromo-phenylcarbamoyl)-(3-piperidin-1-yl-pyrrolidin-1-yl)-methyl]-phenyl}-acrylamide], in the assay on HT-29 colon cancer cells, the GI50 worked out at 0.7 µM. The “p21 (RP3)” value in assay [1] turned out to be 338%. Further, in assay [2], the “p21/klf2 (RP3)” value stood at 1.2 and the “p21/klf2 (RP10)” value amounted to 0.1. In addition, the “HD (RP30)” value in assay [3] came to 111%.
The corresponding values for `CCN(CC)C1CCN(C(C(=O)Nc2ccc(Cl)cc2)c2ccc(/C=C/C(=O)Nc3ccccc3N)cc2)C1` (stereo not shown) [Example 7] are 0.4 µM, 187%, 0.8, 1.2 and 163%.
